Patent US20160046618A1, “Cyclopropyl Fused Thiazin-2-Amine Compounds as Beta-Secretase Inhibitors and Methods of Use” (AMGEN INC., priority 2014, published 2016)
Where two headings read alike, the source gives them in different places.

What was measured:
human recombinant BACE2 = human recombinant BACE2 (Homo sapiens (Human), UniProt Q9Y5Z0); assay: In vitro enzymatic BACE2 FRET assay; type: biochemical; conditions: read-out: IC50 IP (μM) BACE2 enzyme
Procedure, shortened: (§1)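 Tris addition raises the pH to neutral to stop the reaction before fluorescence is measured at 590 nm emission with 488 nm excitation.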

human recombinant BACE1 = human recombinant BACE1 (Homo sapiens (Human), UniProt P56817); assay: In vitro enzymatic BACE1 FRET assay; type: biochemical; conditions: read-out: IC50 IP (μM) BACE1 enzyme
Chain of human recombinant BACE1 (P56817 46-501): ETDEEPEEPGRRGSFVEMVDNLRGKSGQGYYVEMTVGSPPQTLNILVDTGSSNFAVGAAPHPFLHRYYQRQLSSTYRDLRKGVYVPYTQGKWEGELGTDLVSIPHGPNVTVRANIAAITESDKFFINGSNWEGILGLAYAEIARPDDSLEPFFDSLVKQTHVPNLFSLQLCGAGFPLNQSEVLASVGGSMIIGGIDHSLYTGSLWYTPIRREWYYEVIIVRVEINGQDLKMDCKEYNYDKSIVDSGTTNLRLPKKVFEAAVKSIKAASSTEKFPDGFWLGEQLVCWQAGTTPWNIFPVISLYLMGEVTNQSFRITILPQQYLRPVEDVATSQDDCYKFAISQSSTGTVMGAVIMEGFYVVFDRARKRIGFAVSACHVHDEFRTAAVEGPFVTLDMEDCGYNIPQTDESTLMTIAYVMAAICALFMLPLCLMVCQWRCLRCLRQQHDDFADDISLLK
Procedure, shortened: as §1

Recombinant Cat D = Recombinant Cat D (Homo sapiens (Human), UniProt P07339); assay: In vitro enzymatic Cathepsin D (Cat D) FRET assay; type: biochemical; conditions: read-out: IC50 IP (μM) CatD
Chain of Recombinant Cat D (P07339 65-412): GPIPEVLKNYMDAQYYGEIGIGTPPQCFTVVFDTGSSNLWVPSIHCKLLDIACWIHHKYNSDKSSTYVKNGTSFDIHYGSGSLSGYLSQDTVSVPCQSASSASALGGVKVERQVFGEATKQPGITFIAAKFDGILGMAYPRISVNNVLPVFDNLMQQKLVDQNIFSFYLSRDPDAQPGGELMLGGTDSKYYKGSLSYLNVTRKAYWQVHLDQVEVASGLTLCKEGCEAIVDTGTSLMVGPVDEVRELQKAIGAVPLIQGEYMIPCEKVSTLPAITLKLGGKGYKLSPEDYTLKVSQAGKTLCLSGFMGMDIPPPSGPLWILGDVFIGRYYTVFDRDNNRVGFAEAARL
Procedure, shortened: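 Human Cat D expressed in CHO cells was incubated for one hour in 0.05 M citrate pH 3.5, 5 mM CHAPS, 10% DMSO final, with 20 nM quenched FRET peptide substrate. Reactions were stopped with Tris buffer raising pH to neutrality. Cleavage was read as fluorescence at excitation 500 nm, emission 580 nm.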

[1] = system: Aβ40 in conditioned medium of cells stably expressing Amyloid Precursor Protein (APP); assay: In vitro BACE-1 cell-based assay (Aβ40 sandwich ELISA); conditions: read-out: IC50 IP (μM) BACE1 cell
Procedure, shortened: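 Read-out: time-resolved fluorescence (Streptavidin-Europium) of Aβ40 captured by pAb40 and detected with biotinylated 6E10 from supernatants of APP-stable cells. Cells were exposed to compound for 24 h, 10-point dose response, top dose 100 μM or 10 μM, 0.1% DMSO. IC50 fitted to percent of control.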

Chain of human recombinant BACE2 (Q9Y5Z0 63-518): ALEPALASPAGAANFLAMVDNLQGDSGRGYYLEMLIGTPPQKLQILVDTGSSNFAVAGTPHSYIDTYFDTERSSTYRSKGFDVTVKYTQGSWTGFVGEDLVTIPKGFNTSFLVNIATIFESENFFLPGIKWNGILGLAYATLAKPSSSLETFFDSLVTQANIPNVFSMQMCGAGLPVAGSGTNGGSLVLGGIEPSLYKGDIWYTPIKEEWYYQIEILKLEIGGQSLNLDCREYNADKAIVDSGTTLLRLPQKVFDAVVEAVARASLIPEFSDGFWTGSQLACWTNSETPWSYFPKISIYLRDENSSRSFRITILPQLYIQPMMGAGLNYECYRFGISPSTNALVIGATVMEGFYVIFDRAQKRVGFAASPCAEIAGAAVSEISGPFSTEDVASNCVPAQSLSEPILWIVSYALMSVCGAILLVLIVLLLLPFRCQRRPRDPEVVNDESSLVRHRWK

Structure (SMILES) | IC50 (human recombinant BACE2) [µM] | IC50 (human recombinant BACE1) [µM] | IC50 (Recombinant Cat D) [µM] | IC50 [1] [µM] | IC50 (human recombinant BACE2; BACE2 FRET enzyme assay) [µM] | IC50 (human recombinant BACE1; BACE1 FRET enzyme assay) [µM] | IC50 (Recombinant Cat D; Cathepsin D FRET enzyme assay) [µM] | IC50 ([1]; BACE1 cell-based assay) [µM]
CC#CCOc1cnc2c(Nc3ccc(F)c([C@@]4(CF)N=C(N)S[C@@]5(CF)C[C@H]54)c3)nccc2n1 [Example 865, N-(3-((1S,5S,6S)-3-amino-1,5-bis(fluoromethyl)-2-thia-4-azabicyclo[4.1.0]hept-3-en-5-yl)-4-fluorophenyl)-2-(2-butyn-1-yloxy)pyrido[3,4-b]pyrazin-5-amine] | 0.0123 | 0.000236 | 325 | 0.00301 |  |  |  | 
COC[C@]12C[C@H]1[C@@](C)(c1cc(NC(=O)c3cnc(OCC4CC4(F)F)cn3)cc(F)c1F)N=C(N)S2 (stereo partly drawn) [Example 1035, N-(3-((1S,5S,6S)-3-amino-1-(methoxymethyl)-5-methyl-2-thia-4-azabicyclo[4.1.0]hept-3-en-5-yl)-4,5-difluorophenyl)-5-((2,2-difluorocyclopropyl)methoxy)pyrazine-2-carboxamide] | 0.1 | 0.00258 | 1210 | 0.022 |  |  |  | 
COC[C@]12C[C@H]1[C@@](C)(c1cc(Nc3nccc4nc(OCc5nc(C)no5)cnc34)cc(F)c1F)N=C(N)S2 [Example 882, N-(3-((1S,5S,6S)-3-amino-1-(methoxymethyl)-5-methyl-2-thia-4-azabicyclo[4.1.0]hept-3-en-5-yl)-4,5-difluorophenyl)-2-((3-methyl-1,2,4-oxadiazol-5-yl)methoxy)pyrido[3,4-b]pyrazin-5-amine] | 0.381 | 0.00778 | 911 | 0.0204 |  |  |  | 
COc1cnc2c(Nc3cc(F)c(F)c([C@@]4(C)N=C(N)S[C@@]5(CF)C[C@H]54)c3)ncnc2c1 [Example 64, (1S,5S,6S)-5-(2,3-difluoro-5-((7-methoxypyrido[3,2-d]pyrimidin-4-yl)amino)phenyl)-1-(fluoromethyl)-5-methyl-2-thia-4-azabicyclo[4.1.0]hept-3-en-3-amine] |  |  |  |  | 0.025 | 0.00448 | 268 | 0.00281
NC1=N[C@](CF)(c2cc(NC(=O)c3ccc(Cl)cn3)ccc2F)[C@@H]2C3CSC[C@]32S1 (stereo partly drawn) [Example 753, N-(3-((4S,4aS,7aR)-2-amino-4-(fluoromethyl)-4a,4b,5,7-tetrahydro-4H-thieno[3′,4′:2,3]cyclopropa[1,2-e][1,3]thiazin-4-yl)-4-fluorophenyl)-5-chloropicolinamide] | 0.00304 | 0.00339 | 420 | 0.0964 |  |  |  | 
C[C@]1(c2cc(NC(=O)c3ccc(OCC(F)(F)F)cn3)ccc2F)N=C(N)S[C@@]2(C(F)F)C[C@@H]12 [Example 696, N-(3-((1S,5S,6S)-3-amino-1-(difluoromethyl)-5-methyl-2-thia-4-azabicyclo[4.1.0]hept-3-en-5-yl)-4-fluorophenyl)-5-(2,2,2-trifluoroethoxy)-2-pyridinecarboxamide] | 0.324 | 0.0062 | 846 | 0.0707 |  |  |  | 
C[C@@H](Oc1cnc2c(Nc3cc(F)c(F)c([C@@]4(C)N=C(N)S[C@@]5(C(F)F)C[C@@H]45)c3)nccc2n1)c1ncco1 [Example 891, N-(3-((1S,5S,6S)-3-amino-1-(difluoromethyl)-5-methyl-2-thia-4-azabicyclo[4.1.0]hept-3-en-5-yl)-4,5-difluorophenyl)-2-((1 R)-1-(1,3-oxazol-2-yl)ethoxy)pyrido[3,4-b]pyrazin-5-amine] | 1.09 | 0.177 | 984 | 2.88 |  |  |  | 
Cc1nc(OCc2ncco2)cnc1C(=O)Nc1ccc(F)c([C@@]2(C)N=C(N)S[C@@]3(CF)C[C@H]32)c1 [Example 837, N-(3-((1S,5S,6S)-3-amino-1-(fluoromethyl)-5-methyl-2-thia-4-azabicyclo[4.1.0]hept-3-en-5-yl)-4-fluorophenyl)-3-methyl-5-(1,3-oxazol-2-ylmethoxy)-2-pyrazinecarboxamide] | 0.0259 | 0.00253 | 1070 | 0.00325 |  |  |  | 
COC[C@]12C[C@H]1[C@@](C)(c1cc(NC(=O)c3cnc(OCC(F)(F)C(F)F)cn3)cc(F)c1F)N=C(N)S2 [Example 734, N-(3-((1S,5S,6S)-3-amino-1-(methoxymethyl)-5-methyl-2-thia-4-azabicyclo[4.1.0]hept-3-en-5-yl)-4,5-difluorophenyl)-5-(2,2,3,3-tetrafluoropropoxy)-2-pyrazinecarboxamide] | 0.188 | 0.00173 | 2110 | 0.017 |  |  |  | 
C#CCOc1cnc2c(Nc3cc(F)c(F)c([C@@]4(C)N=C(N)S[C@@]5(COC)C[C@H]54)c3)nccc2c1 [Example 733, N-(3-((1S,5S,6S)-3-amino-1-(methoxymethyl)-5-methyl-2-thia-4-azabicyclo[4.1.0]hept-3-en-5-yl)-4,5-difluorophenyl)-3-(2-propyn-1-yloxy)-1,7-naphthyridin-8-amine] | 0.0642 | 0.00638 | 1520 | 0.014 |  |  |  | 
C#CCOc1cnc2c(Nc3ccc(F)c([C@@]4(C)N=C(N)S[C@@]5(C(=O)NC)C[C@H]54)c3)nccc2n1 [Example 979, (1S,5S,6S)-3-amino-5-(2-fluoro-5-((2-(2-propyn-1-yloxy)pyrido[3,4-b]pyrazin-5-yl)amino)phenyl)-N,5-dimethyl-2-thia-4-azabicyclo[4.1.0]hept-3-ene-1-carboxamide] | 0.0201 | 0.000315 | > 400 | 0.000859 |  |  |  | 
C#CCOc1cnc(C(=O)Nc2ccc(F)c([C@@]3(C)N=C(N)S[C@@]4(C(F)F)C[C@@H]34)c2)cn1 [Example 820, N-(3-((1S,5S,6S)-3-amino-1-(difluoromethyl)-5-methyl-2-thia-4-azabicyclo[4.1.0]hept-3-en-5-yl)-4-fluorophenyl)-5-(2-propyn-1-yloxy)-2-pyrazinecarboxamide] | 0.0162 | 0.000319 | 60.4 | 0.000495 |  |  |  | 

Now from value to compound:

IC50 (human recombinant BACE2) [µM] | IC50 (human recombinant BACE1) [µM] | IC50 (Recombinant Cat D) [µM] | IC50 [1] [µM] | IC50 (human recombinant BACE2; BACE2 FRET enzyme assay) [µM] | IC50 (human recombinant BACE1; BACE1 FRET enzyme assay) [µM] | IC50 (Recombinant Cat D; Cathepsin D FRET enzyme assay) [µM] | IC50 ([1]; BACE1 cell-based assay) [µM] | Structure (SMILES)
0.0417 | 0.00314 | 1090 | 0.00518 |  |  |  |  | C#CCOc1cnc2c(Nc3ccc(F)c([C@@]4(CF)N=C(N)S[C@@]5(COC)C[C@H]54)c3)ncnc2c1 [Example 942, N-(3-((1S,5S,6S)-3-amino-5-(fluoromethyl)-1-(methoxymethyl)-2-thia-4-azabicyclo[4.1.0]hept-3-en-5-yl)-4-fluorophenyl)-7-(2-propyn-1-yloxy)pyrido[3,2-d]pyrimidin-4-amine]
< 0.00203 | 0.000274 | 834 | 0.000416 |  |  |  |  | C/C(=C/[C@]12C[C@H]1[C@@](CF)(c1cc(NC(=O)c3ccc(Cl)cn3)ccc1F)N=C(N)S2)C(=O)N1CCOCC1 [Example 777, N-(3-((1R,5S,6S)-3-amino-5-(fluoromethyl)-1-((Z)-2-methyl-3-morpholino-3-oxoprop-1-en-1-yl)-2-thia-4-azabicyclo[4.1.0]hept-3-en-5-yl)-4-fluorophenyl)-5-chloropicolinamide]
0.0897 | 0.00107 | 775 | 0.152 |  |  |  |  | COC[C@]12C[C@H]1[C@@](C)(c1cc(NC(=O)c3cnc(OCc4cc(C)no4)cn3)cc(F)c1F)N=C(N)S2 [Example 1031, N-(3-((1S,5S,6S)-3-amino-1-(methoxymethyl)-5-methyl-2-thia-4-azabicyclo[4.1.0]hept-3-en-5-yl)-4,5-difluorophenyl)-5-((3-methyl-5-isoxazolyl)methoxy)-2-pyrazinecarboxamide]
< 0.00203 | 0.000276 | 1120 | 0.000709 |  |  |  |  | CNC(=O)[C@]12C[C@H]1[C@@](C)(c1cc(NC(=O)c3ccc(Cl)cn3)ccc1F)N=C(N)S2 [Example 985, (1S,5S,6S)-3-amino-5-(5-(5-chloropicolinamido)-2-fluorophenyl)-N,5-dimethyl-2-thia-4-azabicyclo[4.1.0]hept-3-ene-1-carboxamide]
0.255 | 0.00203 | 292 | 0.0338 |  |  |  |  | C[C@]1(c2cc(NC(=O)c3ccc(OCC(F)(F)C(F)F)cn3)ccc2F)N=C(N)S[C@]2(CO)[C@H]1C2(F)F [Example 751, N-(3-((1S,5S,6R)-3-amino-7,7-difluoro-1-(hydroxymethyl)-5-methyl-2-thia-4-azabicyclo[4.1.0]hept-3-en-5-yl)-4-fluorophenyl)-5-(2,2,3,3-tetrafluoropropoxy)-2-pyridinecarboxamide]
0.0129 | 0.00141 | 439 | 0.00723 |  |  |  |  | C#CCOc1cnc2c(Nc3ccc(F)c([C@@]4(C)N=C(N)S[C@@]5(C#N)C[C@H]54)c3)ncnc2c1 [Example 928, (1S,5S,6S)-3-amino-5-(2-fluoro-5-((7-(2-propyn-1-yloxy)pyrido[3,2-d]pyrimidin-4-yl)amino)phenyl)-5-methyl-2-thia-4-azabicyclo[4.1.0]hept-3-ene-1-carbonitrile]
